Assays:
[1] = tested on: galium (catchweed bedstraw, Galium aparine); assay: Test A postemergence, visual injury rating 0-100; type: in vivo; conditions: 0 to 100 scale
[2] = tested on: pigweed (Amaranthus retroflexus); assay: Test A postemergence, visual injury rating 0-100; type: in vivo; conditions: 0 to 100 scale
[3] = tested on: wheat (Triticum aestivum); assay: Test A postemergence, visual injury rating 0-100; type: in vivo; conditions: 0 to 100 scale
[4] = tested on: barnyardgrass (Echinochloa crus-galli); assay: Test A postemergence, visual injury rating 0-100; type: in vivo; conditions: 0 to 100 scale
[5] = tested on: blackgrass (Alopecurus myosuroides); assay: Test A postemergence, visual injury rating 0-100; type: in vivo; conditions: 0 to 100 scale
[6] = tested on: ragweed (common ragweed, Ambrosia elatior); assay: Test A postemergence, visual injury rating 0-100; type: in vivo; conditions: 0 to 100 scale
kochia (Kochia scoparia) [7] = assay: Test A postemergence, visual injury rating 0-100; type: in vivo; conditions: 0 to 100 scale
[8] = tested on: foxtail, green (green foxtail, Setaria viridis); assay: Test A postemergence, visual injury rating 0-100; type: in vivo; conditions: 0 to 100 scale
corn (Zea mays) = assay: Test A postemergence, visual injury rating 0-100; type: in vivo; conditions: 0 to 100 scale
[9] = tested on: ryegrass, Italian (Italian ryegrass, Lolium multiflorum); assay: Test A postemergence, visual injury rating 0-100; type: in vivo; conditions: 0 to 100 scale
rice (Oryza sativa) = assay: Test B flooded paddy test, visual rating 0-100 (0 no effect, 100 complete control); conditions: Flood, 250 g ai/ha, applied to paddy water, rated after 13 to 15 days
[10] = tested on: barnyardgrass (Echinochloa crus-galli); assay: Test B flooded paddy test, visual rating 0-100; conditions: Flood, 250 g ai/ha, applied to paddy water, rated after 13 to 15 days
[11] = tested on: ducksalad (Heteranthera limosa); assay: Test B flooded paddy test, visual rating 0-100; conditions: Flood, 250 g ai/ha, applied to paddy water, rated after 13 to 15 days
[12] = tested on: pigweed (Amaranthus retroflexus); assay: Test A preemergence, visual injury rating 0-100; type: in vivo; conditions: for Pigweed plant response rating (0 to 100 scale): 125 g ai/ha; for Pigweed plant response rating: 500 g ai/ha, 0 to 100 scale
[13] = tested on: ragweed (common ragweed, Ambrosia elatior); assay: Test A preemergence, visual injury rating 0-100; type: in vivo; conditions: for Ragweed plant response rating (0 to 100 scale): 125 g ai/ha; for Ragweed plant response rating: 500 g ai/ha, 0 to 100 scale
kochia (Kochia scoparia) [14] = assay: Test A preemergence, visual injury rating 0-100; type: in vivo; conditions: for Kochia plant response rating (0 to 100 scale): 125 g ai/ha; for Kochia plant response rating: 500 g ai/ha, 0 to 100 scale
[15] = tested on: foxtail, green (green foxtail, Setaria viridis); assay: Test A preemergence, visual injury rating 0-100; type: in vivo; conditions: for Foxtail, Green plant response rating (0 to 100 scale): 125 g ai/ha; for Foxtail, Green plant response rating: 500 g ai/ha, 0 to 100 scale
[16] = tested on: ryegrass, Italian (Italian ryegrass, Lolium multiflorum); assay: Test A preemergence, visual injury rating 0-100; type: in vivo; conditions: for Ryegrass, Italian plant response rating (0 to 100 scale): 125 g ai/ha; for Ryegrass, Italian plant response rating: 500 g ai/ha, 0 to 100 scale
[17] = tested on: barnyardgrass (Echinochloa crus-galli); assay: Test A preemergence, visual injury rating 0-100 (0 no effect, 100 complete control); type: in vivo; conditions: for Barnyardgrass plant response rating (0 to 100 scale): 125 g ai/ha; for Barnyardgrass plant response rating: 500 g ai/ha, 0 to 100 scale

| Compound | Galium plant response rating ([1]; 125 g ai/ha) | Galium plant response rating ([1]; 500 g ai/ha) | Pigweed plant response rating ([2]; 125 g ai/ha) | Pigweed plant response rating ([2]; 500 g ai/ha) | Wheat plant response rating ([3]; 125 g ai/ha) | Wheat plant response rating ([3]; 500 g ai/ha) | Barnyardgrass plant response rating ([4]; 125 g ai/ha) | Barnyardgrass plant response rating ([4]; 500 g ai/ha) | Blackgrass plant response rating ([5]; 125 g ai/ha) | Blackgrass plant response rating ([5]; 500 g ai/ha) | Ragweed plant response rating ([6]; 125 g ai/ha) | Ragweed plant response rating ([6]; 500 g ai/ha) | Kochia plant response rating (kochia (Kochia scoparia) [7]; 125 g ai/ha) | Kochia plant response rating (kochia (Kochia scoparia) [7]; 500 g ai/ha) | Foxtail, Green plant response rating ([8]; 125 g ai/ha) | Foxtail, Green plant response rating ([8]; 500 g ai/ha) | Corn plant response rating (corn (Zea mays); 125 g ai/ha) | Corn plant response rating (corn (Zea mays); 500 g ai/ha) | Ryegrass, Italian plant response rating ([9]; 125 g ai/ha) | Ryegrass, Italian plant response rating ([9]; 500 g ai/ha) | also measured |
| --- | --- | --- | --- | --- | --- | --- | --- | --- | --- | --- | --- | --- | --- | --- | --- | --- | --- | --- | --- | --- | --- |
| CC1=[N+]([O-])C(C(=O)Nc2cccc(F)c2F)C(c2ccccc2)C1 (racemic) [Compound 16] | 0 | 30 | 0 | 20 | 0 | 0 | 80 | 90 | 0 | 0 | 0 | 20 | 0 | 20 | 10 | 80 | 0 | 0 | 0 | 0 | Rice plant response rating (0 to 100 scale) (rice (Oryza sativa)): 0; Barnyardgrass plant response rating (0 to 100 scale) [10]: 85; Ducksalad plant response rating (0 to 100 scale) [11]: 100; Pigweed plant response rating (0 to 100 scale) [12]: 0; Pigweed plant response rating [12]: 70; Ragweed plant response rating (0 to 100 scale) [13]: 0; Ragweed plant response rating [13]: 20; Kochia plant response rating (0 to 100 scale) (kochia (Kochia scoparia) [14]): 0; Kochia plant response rating (kochia (Kochia scoparia) [14]): 30; Foxtail, Green plant response rating (0 to 100 scale) [15]: 100; Foxtail, Green plant response rating [15]: 100; Ryegrass, Italian plant response rating (0 to 100 scale) [16]: 0; Ryegrass, Italian plant response rating [16]: 0; Barnyardgrass plant response rating (0 to 100 scale) [17]: 100; Barnyardgrass plant response rating [17]: 100 |
| CC1=[N+]([O-])C(C(=O)Nc2ccccc2)C(c2ccc(F)c(F)c2)C1 (racemic) [Compound 17] | 0 | 0 | 0 | 0 | 0 | 0 | 0 | 0 | 0 | 0 | 0 | 0 | 0 | 0 | 20 | 20 | 0 | 20 | 0 | 0 | Rice plant response rating (0 to 100 scale) (rice (Oryza sativa)): 0; Barnyardgrass plant response rating (0 to 100 scale) [10]: 0; Ducksalad plant response rating (0 to 100 scale) [11]: 40; Pigweed plant response rating (0 to 100 scale) [12]: 0; Pigweed plant response rating [12]: 0; Ragweed plant response rating (0 to 100 scale) [13]: 0; Ragweed plant response rating [13]: 0; Kochia plant response rating (0 to 100 scale) (kochia (Kochia scoparia) [14]): 0; Kochia plant response rating (kochia (Kochia scoparia) [14]): 0; Foxtail, Green plant response rating (0 to 100 scale) [15]: 0; Foxtail, Green plant response rating [15]: 50; Ryegrass, Italian plant response rating (0 to 100 scale) [16]: 0; Ryegrass, Italian plant response rating [16]: 0; Barnyardgrass plant response rating (0 to 100 scale) [17]: 0; Barnyardgrass plant response rating [17]: 20 |
| CC1=[N+]([O-])C(C(=O)Nc2cccc(F)c2F)C(c2cccc(Br)c2)C1 (racemic) [Compound 19] | 0 | 30 | 0 | 20 | 0 | 70 | 10 | 90 | 20 | 60 | 0 | 20 | 0 | 30 | 30 | 60 | 30 | 80 | 0 | 40 | Rice plant response rating (0 to 100 scale) (rice (Oryza sativa)): 15; Barnyardgrass plant response rating (0 to 100 scale) [10]: 85; Ducksalad plant response rating (0 to 100 scale) [11]: 95; Pigweed plant response rating (0 to 100 scale) [12]: 20; Pigweed plant response rating [12]: 60; Ragweed plant response rating (0 to 100 scale) [13]: 20; Ragweed plant response rating [13]: 50; Kochia plant response rating (0 to 100 scale) (kochia (Kochia scoparia) [14]): 0; Kochia plant response rating (kochia (Kochia scoparia) [14]): 60; Foxtail, Green plant response rating (0 to 100 scale) [15]: 50; Foxtail, Green plant response rating [15]: 90; Ryegrass, Italian plant response rating (0 to 100 scale) [16]: 0; Ryegrass, Italian plant response rating [16]: 40; Barnyardgrass plant response rating (0 to 100 scale) [17]: 70; Barnyardgrass plant response rating [17]: 90 |
| CC1=[N+]([O-])C(C(=O)Nc2cccc(F)c2F)C(c2ccc(Br)cc2)C1 (racemic) [Compound 20] | 30 | 40 | 0 | 40 | 0 | 30 | 10 | 50 | 0 | 30 | 0 | 30 | 0 | 30 | 0 | 60 | 0 | 0 | 0 | 30 | Rice plant response rating (0 to 100 scale) (rice (Oryza sativa)): 0; Barnyardgrass plant response rating (0 to 100 scale) [10]: 95; Ducksalad plant response rating (0 to 100 scale) [11]: 100; Pigweed plant response rating (0 to 100 scale) [12]: 60; Pigweed plant response rating [12]: 80; Ragweed plant response rating (0 to 100 scale) [13]: 20; Ragweed plant response rating [13]: 60; Kochia plant response rating (0 to 100 scale) (kochia (Kochia scoparia) [14]): 0; Kochia plant response rating (kochia (Kochia scoparia) [14]): 50; Foxtail, Green plant response rating (0 to 100 scale) [15]: 60; Foxtail, Green plant response rating [15]: 90; Ryegrass, Italian plant response rating (0 to 100 scale) [16]: 0; Ryegrass, Italian plant response rating [16]: 20; Barnyardgrass plant response rating (0 to 100 scale) [17]: 60; Barnyardgrass plant response rating [17]: 90 |
| CC1=[N+]([O-])C(C(=O)Nc2cccc(F)c2F)C(c2ccccc2F)C1 (racemic) [Compound 21] | 0 | 0 | 0 | 0 | 0 | 0 | 0 | 50 | 0 | 20 | 0 | 0 | 0 | 0 | 0 | 20 | 0 | 20 | 0 | 0 | Rice plant response rating (0 to 100 scale) (rice (Oryza sativa)): 0; Barnyardgrass plant response rating (0 to 100 scale) [10]: 40; Ducksalad plant response rating (0 to 100 scale) [11]: 80; Pigweed plant response rating (0 to 100 scale) [12]: 0; Pigweed plant response rating [12]: 0; Ragweed plant response rating (0 to 100 scale) [13]: 0; Ragweed plant response rating [13]: 0; Kochia plant response rating (0 to 100 scale) (kochia (Kochia scoparia) [14]): 0; Kochia plant response rating (kochia (Kochia scoparia) [14]): 40; Foxtail, Green plant response rating (0 to 100 scale) [15]: 20; Foxtail, Green plant response rating [15]: 90; Ryegrass, Italian plant response rating (0 to 100 scale) [16]: 0; Ryegrass, Italian plant response rating [16]: 0; Barnyardgrass plant response rating (0 to 100 scale) [17]: 10; Barnyardgrass plant response rating [17]: 90 |

Reference: US11498899B2, “Nitrone herbicides” (FMC Corporation, priority 2016, dated 2022)
